Laboratory results published in PubChem BioAssay (NCI).
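Five concentrations, 48 hours, 96-well plates. TGI is the concentration that stops growth completely.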

Tests used:
Experiment in all cases: growth of human tumour cells (NCI), 48 h
[1] = system: 786-0 renal
[2] = system: ACHN renal
[3] = system: BT-549 breast
[4] = system: COLO 205 colon
[5] = system: HCC-2998 colon
[6] = system: HCT-116 colon
[7] = system: HL-60(TB) leukemia
[8] = system: HOP-92 NSCLC
[9] = system: HS 578T breast
[10] = system: K-562 leukemia
[11] = system: MDA-N
[12] = system: MOLT-4 leukemia
[13] = system: NCI-H460 lung
[14] = system: OVCAR-3 ovarian
[15] = system: RPMI-8226 leukemia
[16] = system: SK-MEL-5 melanoma
[17] = system: SNB-19 CNS
[18] = system: UO-31 renal
[19] = system: NCI/ADR-RES ovarian
[20] = system: OVCAR-8 ovarian

| SMILES | TGI [1] [µM] | TGI [2] [µM] | TGI [3] [µM] | TGI [4] [µM] | TGI [5] [µM] | TGI [6] [µM] | TGI [7] [µM] | TGI [8] [µM] | TGI [9] [µM] | TGI [10] [µM] | TGI [11] [µM] | TGI [12] [µM] | TGI [13] [µM] | TGI [14] [µM] | TGI [15] [µM] | TGI [16] [µM] | TGI [17] [µM] | TGI [18] [µM] | TGI [19] [µM] | TGI [20] [µM] |
| --- | --- | --- | --- | --- | --- | --- | --- | --- | --- | --- | --- | --- | --- | --- | --- | --- | --- | --- | --- | --- |
| CNc1ncnc2c1cnn2CCCCO | > 100 | > 100 | > 100 | > 100 | > 100 | > 100 | > 100 | > 100 | > 100 | > 100 | > 100 | > 100 | > 100 | > 100 | > 100 | > 100 | > 100 | > 100 | – | – |
| CCCCc1ccc(Nc2nc(Cl)c3ncn(C4CC(Oc5ccc(C)cc5)C(COc5ccc(C)cc5)O4)c3n2)cc1 (stereo unspecified) | > 100 | > 100 | > 100 | > 100 | > 100 | > 100 | > 100 | > 100 | > 100 | > 100 | > 100 | > 100 | – | > 100 | > 100 | > 100 | > 100 | > 100 | > 100 | > 100 |
| N=c1oc2ccc(Cl)cc2cc1C(N)=O | 73 | > 100 | > 100 | > 100 | 47.4 | 61.7 | > 100 | > 100 | 63.9 | > 100 | 69.1 | > 100 | > 100 | 64.9 | > 100 | 47 | > 100 | – | > 100 | > 100 |
| COC(=O)C(/C(=N/N)C(=O)Nc1cccc(O)c1)c1nc2ccccc2[nH]c1=O (stereo unspecified) | > 100 | > 100 | > 100 | – | > 100 | > 100 | > 100 | > 100 | > 100 | > 100 | > 100 | > 100 | > 100 | > 100 | – | > 100 | > 100 | > 100 | > 100 | > 100 |
| O=C(NCCCNCCCCNCCCNC(=O)c1cc(-c2ccccc2)nc2ccccc12)c1cc(-c2ccccc2)nc2ccccc12 | 3 | 42.3 | 15.5 | – | 4.61 | > 100 | 3.8 | 4.36 | 4.32 | 3.83 | 3.17 | 3.73 | 19.7 | 15.9 | – | 26.3 | – | 40 | 74.2 | – |
| Cc1cccc(/C=N/NC(=S)N(C)CCc2ccccn2)n1 | > 100 | 1.15 | > 100 | > 100 | > 100 | > 100 | – | > 83.9 | > 100 | > 45.6 | > 100 | > 100 | > 52.5 | > 100 | 0.388 | 9.4 | > 100 | 2.36 | – | > 59 |
| N#CCC1(c2ccc(Cl)cc2)NC(=O)c2ccccc21 (stereo unspecified) | > 100 | > 100 | > 100 | > 100 | – | > 100 | > 100 | > 100 | > 100 | > 100 | > 100 | > 100 | > 100 | > 100 | > 100 | > 100 | > 100 | > 100 | > 100 | > 100 |
| Clc1ccc(-c2nc3ccc4ccccc4c3c3c2CCCC3)cc1 | > 100 | – | > 100 | > 100 | > 100 | > 100 | – | – | > 100 | > 100 | > 100 | > 100 | > 100 | > 100 | > 100 | > 100 | > 100 | > 100 | > 100 | > 100 |
| O=C(Nc1ncc([N+](=O)[O-])s1)c1ccccc1O | > 100 | > 84.5 | 79.2 | 36.1 | > 100 | 46.4 | – | 7.98 | 32.5 | > 100 | 99.4 | > 100 | > 100 | > 42.4 | 55 | 37.5 | > 100 | 98.1 | > 82.4 | > 100 |
| COC(=O)N/N=C(\c1ccccc1)c1ccc(OC)cc1 | > 100 | – | > 100 | > 100 | > 100 | > 100 | > 100 | – | > 100 | > 100 | > 100 | > 100 | > 100 | > 100 | > 100 | > 100 | > 100 | > 100 | > 100 | > 100 |
| Nc1c(Br)cc(-c2nc3ccccc3s2)cc1Br | > 100 | > 100 | > 100 | > 100 | > 100 | > 100 | > 100 | > 100 | > 100 | > 100 | > 100 | > 100 | > 100 | > 100 | – | > 100 | > 100 | > 100 | > 100 | > 100 |
| CC(NC(=O)OC(C)(C)C)C(=O)NC(Cc1ccccc1)C(=O)NCC(=O)Oc1c(Cl)c(Cl)c(Cl)c(Cl)c1Cl (stereo unspecified) | 46.4 | 67.6 | 69.3 | 70.9 | 30.6 | 43.9 | 53.3 | 38.3 | > 100 | > 100 | 90.6 | 59.3 | 63.3 | – | 54.9 | 27.4 | > 100 | 33.9 | – | 43.9 |
| Cc1cc(-c2cscn2)c(O)c([N+](=O)[O-])c1 | > 100 | > 100 | > 100 | > 100 | > 100 | > 100 | > 100 | > 100 | > 100 | > 100 | > 100 | – | > 100 | – | > 100 | > 100 | > 100 | > 100 | > 100 | > 100 |
